Measured values reported in US7872018B2, “Compounds and methods for kinase modulation, and indications therefor” (Plexxikon, Inc., priority 2006, dated 2011).
pIC50: −log10 of the molar value.

Legend:
[1] = target: Flt1 (Homo sapiens, UniProt P17948); assay: Flt1 kinase activity assay; assay type: biochemical; conditions: under the test conditions employed; read-out: IC50 toward kinase Flt1
[2] = target: T1, Fms (Homo sapiens, UniProt P07333); assay: Fms biochemical assay (AlphaScreen or 33P-ATP); conditions: under the test conditions employed; read-out: IC50 toward kinase Fms
T1 construct: purchased Upstate Biotech 14-551
T1 sequence (P07333 20-972): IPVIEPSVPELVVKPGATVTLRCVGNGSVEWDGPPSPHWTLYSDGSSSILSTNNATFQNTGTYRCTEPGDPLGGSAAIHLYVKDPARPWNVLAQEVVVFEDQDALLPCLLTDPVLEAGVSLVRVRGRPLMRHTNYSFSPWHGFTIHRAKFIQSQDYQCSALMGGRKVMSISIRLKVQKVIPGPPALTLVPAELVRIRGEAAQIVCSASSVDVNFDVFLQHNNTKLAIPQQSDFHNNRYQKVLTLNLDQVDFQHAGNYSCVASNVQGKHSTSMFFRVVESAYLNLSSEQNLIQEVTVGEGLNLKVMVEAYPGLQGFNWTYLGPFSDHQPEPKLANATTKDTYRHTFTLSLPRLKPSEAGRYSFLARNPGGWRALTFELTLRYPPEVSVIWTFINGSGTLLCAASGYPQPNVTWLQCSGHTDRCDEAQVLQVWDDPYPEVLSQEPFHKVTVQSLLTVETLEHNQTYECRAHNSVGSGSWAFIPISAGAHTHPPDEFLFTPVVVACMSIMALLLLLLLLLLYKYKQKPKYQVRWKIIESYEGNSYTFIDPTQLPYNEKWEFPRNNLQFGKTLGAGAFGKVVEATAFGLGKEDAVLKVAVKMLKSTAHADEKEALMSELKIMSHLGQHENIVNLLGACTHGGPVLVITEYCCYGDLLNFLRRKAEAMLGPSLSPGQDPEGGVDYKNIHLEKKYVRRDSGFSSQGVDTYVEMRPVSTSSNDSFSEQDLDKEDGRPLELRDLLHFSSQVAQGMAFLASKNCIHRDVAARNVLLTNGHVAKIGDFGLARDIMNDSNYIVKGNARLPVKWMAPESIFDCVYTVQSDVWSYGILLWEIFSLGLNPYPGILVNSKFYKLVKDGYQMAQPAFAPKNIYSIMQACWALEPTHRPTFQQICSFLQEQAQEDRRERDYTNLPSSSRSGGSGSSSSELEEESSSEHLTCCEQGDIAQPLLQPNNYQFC
Text: Each sample was at 5% DMSO.

[3] = target: Kdr (Homo sapiens, UniProt P35968); assay: Kdr kinase activity assay; assay type: biochemical; conditions: under the test conditions employed; read-out: IC50 toward kinase Kdr
Chain of Kdr (P35968 20-1356): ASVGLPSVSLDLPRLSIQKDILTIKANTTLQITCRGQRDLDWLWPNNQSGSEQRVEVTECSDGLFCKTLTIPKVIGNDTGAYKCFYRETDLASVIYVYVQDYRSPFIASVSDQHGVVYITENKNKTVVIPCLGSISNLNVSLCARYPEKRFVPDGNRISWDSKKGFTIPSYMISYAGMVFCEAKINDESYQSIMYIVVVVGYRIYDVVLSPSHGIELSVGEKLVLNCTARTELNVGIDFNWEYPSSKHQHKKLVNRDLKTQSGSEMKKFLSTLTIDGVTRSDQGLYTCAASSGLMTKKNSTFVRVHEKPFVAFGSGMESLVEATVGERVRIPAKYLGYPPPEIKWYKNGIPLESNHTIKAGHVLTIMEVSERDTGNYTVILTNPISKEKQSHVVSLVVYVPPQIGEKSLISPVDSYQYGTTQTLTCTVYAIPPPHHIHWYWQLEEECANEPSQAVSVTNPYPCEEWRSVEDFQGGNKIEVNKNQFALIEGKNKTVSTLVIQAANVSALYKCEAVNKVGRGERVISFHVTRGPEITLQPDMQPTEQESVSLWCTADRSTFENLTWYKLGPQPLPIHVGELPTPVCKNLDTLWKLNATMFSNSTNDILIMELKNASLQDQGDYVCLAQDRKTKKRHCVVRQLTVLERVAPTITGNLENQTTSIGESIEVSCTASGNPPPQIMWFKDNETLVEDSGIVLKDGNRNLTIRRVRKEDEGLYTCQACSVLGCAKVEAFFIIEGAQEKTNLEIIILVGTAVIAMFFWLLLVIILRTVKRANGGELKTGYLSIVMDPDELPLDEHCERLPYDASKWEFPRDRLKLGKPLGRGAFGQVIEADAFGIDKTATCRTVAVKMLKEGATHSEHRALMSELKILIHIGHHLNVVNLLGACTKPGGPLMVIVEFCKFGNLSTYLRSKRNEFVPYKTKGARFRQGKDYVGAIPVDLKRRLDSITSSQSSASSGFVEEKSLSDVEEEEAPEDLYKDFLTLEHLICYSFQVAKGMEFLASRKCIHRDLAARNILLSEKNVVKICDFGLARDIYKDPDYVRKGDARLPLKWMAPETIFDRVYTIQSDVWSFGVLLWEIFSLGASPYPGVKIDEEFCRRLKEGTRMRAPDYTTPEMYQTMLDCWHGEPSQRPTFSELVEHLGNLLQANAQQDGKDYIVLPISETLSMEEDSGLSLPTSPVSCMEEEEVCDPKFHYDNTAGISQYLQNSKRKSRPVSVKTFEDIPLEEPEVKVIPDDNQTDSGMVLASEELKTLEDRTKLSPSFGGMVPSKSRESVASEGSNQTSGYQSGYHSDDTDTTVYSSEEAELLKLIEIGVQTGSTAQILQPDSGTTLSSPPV

[4] = target: Btk (Homo sapiens, UniProt Q06187); assay: Btk kinase activity assay; assay type: biochemical; conditions: under the test conditions employed; read-out: IC50 toward kinase Btk
Chain of Btk (Q06187 whole entry): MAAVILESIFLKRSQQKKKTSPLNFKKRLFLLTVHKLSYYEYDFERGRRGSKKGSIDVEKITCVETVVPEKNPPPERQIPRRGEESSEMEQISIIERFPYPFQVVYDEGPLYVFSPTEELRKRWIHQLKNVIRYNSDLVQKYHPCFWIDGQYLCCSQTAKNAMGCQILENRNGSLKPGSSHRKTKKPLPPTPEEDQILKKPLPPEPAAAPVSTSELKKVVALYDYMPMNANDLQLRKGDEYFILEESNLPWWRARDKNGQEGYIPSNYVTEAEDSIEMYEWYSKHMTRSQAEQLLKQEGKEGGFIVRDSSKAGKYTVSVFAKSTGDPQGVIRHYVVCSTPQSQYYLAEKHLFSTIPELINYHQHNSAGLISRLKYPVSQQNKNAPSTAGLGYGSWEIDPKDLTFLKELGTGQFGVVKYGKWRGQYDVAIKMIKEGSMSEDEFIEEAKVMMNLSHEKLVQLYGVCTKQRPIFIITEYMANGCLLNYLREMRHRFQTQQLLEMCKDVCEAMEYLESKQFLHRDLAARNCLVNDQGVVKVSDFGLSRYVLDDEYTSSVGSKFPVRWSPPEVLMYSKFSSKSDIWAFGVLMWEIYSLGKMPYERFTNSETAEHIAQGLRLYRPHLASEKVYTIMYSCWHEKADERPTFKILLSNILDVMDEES

[5] = target: T2, Kit (Homo sapiens, UniProt P10721); assay: c-kit biochemical assay (AlphaScreen or 33P-ATP); conditions: under the test conditions employed; read-out: IC50 toward kinase Kit
T2 construct: P1332.N6 BI PTP KIT M552-K948-X COD; made in house; host or cells: E. coli BL21(DE3)RIL, co-expressed with PTP1B
T2 sequence (P10721 552-948): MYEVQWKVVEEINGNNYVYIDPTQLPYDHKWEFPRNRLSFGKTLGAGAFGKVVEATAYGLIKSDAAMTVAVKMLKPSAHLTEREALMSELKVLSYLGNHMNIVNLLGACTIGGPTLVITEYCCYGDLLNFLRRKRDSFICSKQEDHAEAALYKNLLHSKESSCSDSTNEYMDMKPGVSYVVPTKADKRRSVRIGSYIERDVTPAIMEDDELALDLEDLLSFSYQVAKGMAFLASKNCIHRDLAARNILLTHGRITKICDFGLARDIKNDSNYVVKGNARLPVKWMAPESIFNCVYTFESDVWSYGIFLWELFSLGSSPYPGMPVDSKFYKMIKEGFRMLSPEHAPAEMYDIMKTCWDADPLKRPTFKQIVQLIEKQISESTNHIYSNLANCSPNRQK
Outline: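 Kinase activity read by AlphaScreen or 33P-ATP incorporation, with c-kit enzyme at 1 ng per sample. The enzyme was either commercial or a recombinant human kit construct made from a gene-synthesized coding sequence.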

[6] = target: B-Raf (Homo sapiens, UniProt P15056); assay: B-Raf kinase activity assay; assay type: biochemical; conditions: under the test conditions employed; read-out: IC50 toward kinase B-Raf
Chain of B-Raf (P15056 whole entry): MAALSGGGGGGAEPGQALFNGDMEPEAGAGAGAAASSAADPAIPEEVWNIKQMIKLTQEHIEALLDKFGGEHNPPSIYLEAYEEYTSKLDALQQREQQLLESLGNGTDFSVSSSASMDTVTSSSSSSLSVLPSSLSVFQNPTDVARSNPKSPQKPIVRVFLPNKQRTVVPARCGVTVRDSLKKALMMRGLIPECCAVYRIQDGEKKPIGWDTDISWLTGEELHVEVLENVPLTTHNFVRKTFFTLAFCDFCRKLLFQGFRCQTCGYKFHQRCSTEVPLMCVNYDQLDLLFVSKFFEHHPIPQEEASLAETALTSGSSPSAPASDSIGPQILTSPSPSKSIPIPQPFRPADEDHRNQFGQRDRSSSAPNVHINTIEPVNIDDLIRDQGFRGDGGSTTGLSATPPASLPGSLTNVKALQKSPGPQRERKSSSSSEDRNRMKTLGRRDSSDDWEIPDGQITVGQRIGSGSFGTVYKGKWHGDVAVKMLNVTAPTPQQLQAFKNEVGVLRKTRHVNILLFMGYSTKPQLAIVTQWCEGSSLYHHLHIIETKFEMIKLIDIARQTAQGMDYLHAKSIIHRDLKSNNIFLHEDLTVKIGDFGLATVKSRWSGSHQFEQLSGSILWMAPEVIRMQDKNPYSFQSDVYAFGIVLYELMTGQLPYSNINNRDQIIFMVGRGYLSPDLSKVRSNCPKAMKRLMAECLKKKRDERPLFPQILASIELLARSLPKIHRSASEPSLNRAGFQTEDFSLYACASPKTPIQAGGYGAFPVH

[7] = target: B-Raf V600E (Homo sapiens, UniProt P15056, V600E); assay: B-Raf V600E kinase activity assay; assay type: biochemical; conditions: under the test conditions employed; read-out: IC50 toward kinase B-Raf V600E
Chain of B-Raf V600E (P15056 whole entry V600E): as the sequence (P15056 whole entry) above, with V600E counted along it

[8] = target: FGFR (Homo sapiens, UniProt P11362); assay: FGFR kinase activity assay; assay type: biochemical; conditions: under the test conditions employed; read-out: IC50 toward kinase FGFR
Chain of FGFR (P11362 22-822): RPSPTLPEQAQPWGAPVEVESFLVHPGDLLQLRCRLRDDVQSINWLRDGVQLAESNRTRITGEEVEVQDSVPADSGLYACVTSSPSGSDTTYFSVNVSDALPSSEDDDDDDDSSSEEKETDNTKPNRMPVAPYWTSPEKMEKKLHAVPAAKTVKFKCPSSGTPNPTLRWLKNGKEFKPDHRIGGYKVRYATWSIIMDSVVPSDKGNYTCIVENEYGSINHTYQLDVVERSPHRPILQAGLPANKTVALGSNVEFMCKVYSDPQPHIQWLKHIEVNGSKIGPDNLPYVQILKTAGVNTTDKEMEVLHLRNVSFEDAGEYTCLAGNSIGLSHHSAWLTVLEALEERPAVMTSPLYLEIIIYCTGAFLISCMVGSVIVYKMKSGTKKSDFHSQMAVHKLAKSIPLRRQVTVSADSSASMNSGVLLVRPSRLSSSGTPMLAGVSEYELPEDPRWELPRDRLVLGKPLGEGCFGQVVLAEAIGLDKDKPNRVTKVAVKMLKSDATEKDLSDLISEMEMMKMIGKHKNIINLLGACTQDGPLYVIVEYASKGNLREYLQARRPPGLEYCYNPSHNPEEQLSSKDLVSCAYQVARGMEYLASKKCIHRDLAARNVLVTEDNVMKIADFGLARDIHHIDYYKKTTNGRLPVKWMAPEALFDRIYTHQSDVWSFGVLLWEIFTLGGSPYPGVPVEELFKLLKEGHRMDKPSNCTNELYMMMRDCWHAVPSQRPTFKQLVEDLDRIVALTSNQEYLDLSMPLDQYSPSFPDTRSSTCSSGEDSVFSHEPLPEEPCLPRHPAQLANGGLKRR

Measured: pIC50

Cn1cc(-c2cnc3[nH]cc(Cc4cc(F)c(O)cc4F)c3c2)cn1 [P-2161, 2,5-difluoro-4-[5-(1-methyl-1H-pyrazol-4-yl)-1H-pyrrolo[2,3-b]pyridin-3-ylmethyl]-phenol]
≥ 5.00: [1] | [2] | [3] | [4] | [5]

Cc1nc(COc2ccc(F)c(C(=O)c3c[nH]c4ncc(Cl)cc34)c2F)c(C)o1 [P-2164, (5-Chloro-1H-pyrrolo[2,3-b]pyridin-3-yl)-[3-(2,5-dimethyl-oxazol-4-ylmethoxy)-2,6-difluoro-phenyl]-methanone]
not listed: [8]
≥ 5.00: all other assays above

O=C(c1c(F)ccc(OCc2ccccc2)c1F)c1c[nH]c2ncc(-c3cccnc3)cc12 [P-1467, (3-Benzyloxy-2,6-difluorophenyl)-(5-pyridin-3-yl-1H-pyrrolo[2,3-b]pyridin-3-yl)-methanone]
not listed: [3] | [4]
≥ 5.00: all other assays above

COCCOc1ccc(F)c(C(=O)c2c[nH]c3ncc(OC)cc23)c1F [P-1584, [2,6-Difluoro-3-(2-methoxy-ethoxy)-phenyl]-(5-methoxy-1H-pyrrolo[2,3-b]pyridin-3-yl)-methanone]
≥ 5.00: [1] | [6] | [7] | [8]

O=C(c1c(F)ccc(OCc2ccc(C(F)(F)F)nc2)c1F)c1c[nH]c2ncc(Cl)cc12 [P-2163, (5-Chloro-1H-pyrrolo[2,3-b]pyridin-3-yl)-[2,6-difluoro-3-(6-trifluoromethyl-pyridin-3-ylmethoxy)-phenyl]-methanone]
≥ 5.00: [2] | [3] | [4] | [5]

COc1cnc2[nH]cc(C(=O)c3c(F)ccc(OCc4ccccc4)c3F)c2c1 [P-1597, (3-Benzyloxy-2,6-difluoro-phenyl)-(5-methoxy-1H-pyrrolo[2,3-b]pyridin-3-yl)-methanone]
≥ 5.00: [1] | [6] | [2] | [7] | [8]

Cc1nc(C)c(COc2cccc(C(=O)c3c[nH]c4ncc(Cl)cc34)c2OCC2CC2)s1 [P-2140, (5-Chloro-1H-pyrrolo[2,3-b]pyridin-3-yl)-[2-cyclopropylmethoxy-3-(2,4-dimethyl-thiazol-5-ylmethoxy)-phenyl]-methanone]
≥ 5.00: [2] | [4] | [5]

CCOc1c(OCc2ccc(N3CCCC3)nc2)cccc1C(=O)c1c[nH]c2ncccc12 [P-2144, [2-Ethoxy-3-(6-pyrrolidin-1-yl-pyridin-3-ylmethoxy)-phenyl]-(1H-pyrrolo[2,3-b]pyridin-3-yl)-methanone]
≥ 5.00: [6] | [2] | [4]

Cc1nc(C)c(COc2ccc(F)c(C(=O)c3c[nH]c4ncc(Cl)cc34)c2F)s1 [P-2162, (5-Chloro-1H-pyrrolo[2,3-b]pyridin-3-yl)-[3-(2,4-dimethyl-thiazol-5-ylmethoxy)-2,6-difluoro-phenyl]-methanone]
≥ 5.00: [2] | [3] | [4] | [5]
